What was measured:
mast cells = test: Mast cell activation, proliferation and survival; format: cell-based
Source text: In a specific embodiment, the D816 mutation is D816V. In another specific embodiment, the D816 mutation is D816Y. […] In some embodiments, the inhibition is in a dose-dependent manner. […] Current treatment paradigms for mast cell diseases focus on inhibiting individual mast cell mediators for symptom control (anti-histamines, anti-IgE antibodies, etc.), or on using KIT exon 17 inhibitors in KIT mutant mMCAS.

[1] = system: tyrosine kinase inhibitor (TKI)-resistant mastocytoma model; test: TKI-resistant mastocytoma model in vivo

SMILES: Cn1cc(-c2cc3c(N4CCN(c5ncc([C@@](C)(N)c6ccc(F)cc6)cn5)CC4)ncnn3c2)cn1 [Compound (I), (5)-1-(4-fluorophenyl)-1-(2-(4-(6-(1-methyl-1H-pyrazol-4-yl)pyrrolo[2,1-f][1,2,4]triazin-4-yl)piperazin-yl)pyrimidin-5-yl)ethan-1-amine]
- mast cell activation (mast cells): inhibits mast cell activation
- mast cell proliferation (mast cells): inhibits mast cell proliferation
- survival of mast cells (mast cells): does not interfere with the survival of mast cells
- growth inhibition in mastocytoma model [1]: robust growth inhibition

Source: patent US20220370465A1, “TREATMENT OF MAST CELL DISEASES AND EOSINOPHILIC DISORDERS” (Blueprint Medicines Corporation, priority 2019, published 2022)
